Measured values as given in article PMC3646888 (PLoS ONE, 2013).
Entries after “also recorded” stand apart in the source; their conditions may differ.

Assays:
Format in all cases: in vitro ADME
CYP2C6 = target: T1, CYP2C6 (Rattus norvegicus, UniProt P05178); assay: Fluorescence-based CYP assay, recombinant CYP2C6, substrate EFC
T1 sequence (P05178 1-490): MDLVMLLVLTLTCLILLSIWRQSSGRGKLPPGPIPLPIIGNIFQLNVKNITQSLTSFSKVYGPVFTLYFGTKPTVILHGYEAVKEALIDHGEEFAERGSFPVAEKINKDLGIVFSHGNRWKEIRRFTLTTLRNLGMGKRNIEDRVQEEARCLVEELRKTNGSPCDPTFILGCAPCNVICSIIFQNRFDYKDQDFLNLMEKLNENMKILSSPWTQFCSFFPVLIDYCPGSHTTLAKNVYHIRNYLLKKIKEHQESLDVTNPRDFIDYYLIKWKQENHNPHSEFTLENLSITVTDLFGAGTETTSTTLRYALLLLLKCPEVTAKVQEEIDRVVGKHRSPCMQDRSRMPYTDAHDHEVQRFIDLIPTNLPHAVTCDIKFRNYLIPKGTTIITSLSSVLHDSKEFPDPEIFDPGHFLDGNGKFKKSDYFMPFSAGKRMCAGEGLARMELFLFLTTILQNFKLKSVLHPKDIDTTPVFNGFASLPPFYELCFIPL
Procedure: (§1) These assays were performed by methods similar to those described by VanAlstine and Hough, Stresser et al., Wulff et al., Henderson et al., and Crespi et al., with minor modifications. All incubations were performed in a final volume of 200 µL of 50 mM potassium phosphate buffer at pH 7.4 containing 1% acetonitrile. CYP inhibitor studies were performed according to the parameters of Table 1. Substrate concentrations were chosen to be near known Km values. As described in the references cited, two different NADPH regenerating systems were used depending on the substrates used (Table 1). Inhibitors were added to either “low” NADPH-regenerating system (final concentration of 8.1 µM NADP^+, 0.4 mM glucose-6-phosphate, 0.4 mM magnesium chloride, 0.2 U/mL glucose-6-phosphate dehydrogenase) or to “high” NADPH-regenerating system (final concentration of 1.3 mM NADP^+, 3.3 mM glucose-6-phosphate, 3.3 mM magnesium chloride, 0.4 U/mL glucose-6-phosphate dehydrogenase) in a total of 0.1 mL buffer. […] For assays utilizing “low” regenerating systems, product formation was monitored continuously by a Victor3 1420 Multilabel Plate Counter at the designated wavelengths (Table 1). […] Product formation was then measured at the designated wavelengths (Table 1). […]

CYP1A2r = target: T2, CYP1A2r (Rattus norvegicus, UniProt P04799); assay: Fluorescence-based CYP assay, recombinant CYP1A2r, substrate EFC
T2 sequence (P04799 1-513): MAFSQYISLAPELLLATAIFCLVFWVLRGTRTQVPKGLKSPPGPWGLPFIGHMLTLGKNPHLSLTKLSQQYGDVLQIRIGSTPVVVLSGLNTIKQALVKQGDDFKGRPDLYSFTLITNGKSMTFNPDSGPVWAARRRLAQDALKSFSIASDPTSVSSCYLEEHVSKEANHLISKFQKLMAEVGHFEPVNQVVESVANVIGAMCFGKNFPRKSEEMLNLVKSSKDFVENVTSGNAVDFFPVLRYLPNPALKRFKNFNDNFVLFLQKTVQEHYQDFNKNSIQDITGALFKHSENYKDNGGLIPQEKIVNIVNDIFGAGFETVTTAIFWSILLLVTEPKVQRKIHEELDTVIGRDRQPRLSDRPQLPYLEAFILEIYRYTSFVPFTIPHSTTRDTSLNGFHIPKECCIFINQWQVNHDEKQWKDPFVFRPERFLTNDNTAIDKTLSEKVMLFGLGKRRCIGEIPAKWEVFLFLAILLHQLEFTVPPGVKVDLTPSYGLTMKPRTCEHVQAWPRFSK
Procedure: These assays were performed by methods similar to those described by VanAlstine and Hough, Stresser et al., Wulff et al., Henderson et al., and Crespi et al., with minor modifications. All incubations were performed in a final volume of 200 µL of 50 mM potassium phosphate buffer at pH 7.4 containing 1% acetonitrile. CYP inhibitor studies were performed according to the parameters of Table 1. Substrate concentrations were chosen to be near known Km values. As described in the references cited, two different NADPH regenerating systems were used depending on the substrates used (Table 1). […] Samples were pre-incubated at 37°C for the designated times, and the reactions were initiated with the addition of a substrate and enzyme mixtures (Table 1). […] For the assays utilizing the “high” regenerating system, enzyme reactions were terminated at the designated time by the addition of 75 µL of 2N NaOH, followed by a 2 h post-incubation at 37°C. Product formation was then measured at the designated wavelengths (Table 1). For the “low” regenerating system assays, blanks and standards were prepared in 0.1 mL buffer without the regenerating system. For the “high” regenerating system assays, blanks and standards containing 0.1 mL of buffer received 75 µL of 2N NaOH following pre-incubation.

CYP2B6 = target: T3, CYP2B6 (Homo sapiens, UniProt P20813); assay: Fluorescence-based CYP assay, recombinant CYP2B6, substrate EFC
T3 sequence (P20813 1-491): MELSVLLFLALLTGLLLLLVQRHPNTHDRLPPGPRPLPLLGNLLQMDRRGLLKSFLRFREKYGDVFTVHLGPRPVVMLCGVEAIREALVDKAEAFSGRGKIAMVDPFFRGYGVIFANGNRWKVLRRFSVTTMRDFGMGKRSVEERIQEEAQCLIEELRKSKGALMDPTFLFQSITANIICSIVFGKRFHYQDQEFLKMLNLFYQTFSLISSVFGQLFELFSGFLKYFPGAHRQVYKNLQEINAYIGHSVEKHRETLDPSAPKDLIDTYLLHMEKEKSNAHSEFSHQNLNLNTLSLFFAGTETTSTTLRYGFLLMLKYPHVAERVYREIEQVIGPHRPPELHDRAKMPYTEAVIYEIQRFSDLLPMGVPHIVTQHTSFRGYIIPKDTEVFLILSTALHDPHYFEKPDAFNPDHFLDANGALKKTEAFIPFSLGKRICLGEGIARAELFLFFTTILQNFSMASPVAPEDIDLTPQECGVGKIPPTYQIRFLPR
Procedure: as §1

SMILES | Inhibition of CYP2C6 (in words) (CYP2C6; positive control) | Inhibition of CYP1A2r (in words) (CYP1A2r; clotrimazole concentration-response, Fig. 1C) | Inhibition of CYP2B6 (in words) (CYP2B6; positive control) | IC50 (CYP2C6; recombinant rat CYP2C6, EFC 5 µM) | IC50 (CYP1A2r) | Inhibition of CYP1A2r (in words) (CYP1A2r; concentrations up to 80 µM) | IC50 (CYP2B6)
Clc1ccccc1C(c1ccccc1)(c1ccccc1)n1ccnc1 [Clotrimazole] | potent inhibitor | only partly inhibited | potent inhibitor | – | – | – | –
Clc1ccccc1C(c1ccccc1)(c1ccccc1)n1cccn1 [TRAM-34, 1-[(2-chlorophenyl)diphenylmethyl]-1H-pyrazole] | – | – | – | 2900 nM | > 80000 nM | no inhibition; also recorded: no inhibitory effects | 900 nM
